Data from patent US20030152515A1, “Method for estimating effective regimens and patient survival rates of antibiotic treatments for fatal infectious diseases” (priority 2002, published 2003).
In brackets after ≈: the same amount, converted by molar mass. Entries after “also recorded” stand apart in the source; their conditions may differ.

Experiments:
Bacillus anthracis = details: rhesus monkey, in vivo; cited from earlier work
anthrax = assay: microbe, parasite or virus in culture; assay type: cell-based; details: Bacillus anthracis, read-out: MIC against anthrax, mid point adopted in the analyses
inhalational anthrax = details: human, in vivo; cited from earlier work
[1] = test system: gram positive and negative organisms; details: cited from earlier work

Compound: O=C(O)c1cn(C2CC2)c2cc(N3CCNCC3)c(F)cc2c1=O [ciprofloxacin]
- protection from the disease while on therapy (Bacillus anthracis): sufficient protection; also recorded: adequately protected
- survival rate (Bacillus anthracis): 90%
- MIC (anthrax): 0.07 mg/L (≈ 0.211 µM)
- overall survival (inhalational anthrax): 55%
- MIC range of organisms in the literature study [1]: 0.008−0.4 μg/mL
